According to patent US11230542B2, “Inhibitors of integrated stress response pathway” (Praxis Biotech LLC, priority 2017, dated 2022):
Where two headings read alike, the source gives them in different places.

Assays:
fasted Balb/c mice = test: Fasting-induced muscle atrophy; assay type: in vivo, mouse
Procedure: Wild type eight-weeks-old male Balb/c mice obtained from the vivarium Fundacion Ciencia & Vida Chile (Santiago, Chile) were used. Mice were housed in independent plastic cages in a room maintained at 25° C. with a 12-h:12-h light:dark cycle.
Twenty-four hours before and during the 2 days of fasted procedures, animals received oral administration via feeding tubes (15 gauge) of vehicle (50% Polyethylene glycol 400 (Sigma-Aldrich P3265) in distilled water or 10 mg/kg of compound 3 formulated in vehicle solution.
After 2 days of fasting the animals were sacrificed and muscles were removed from both hindlimbs. Mice with feed and water ad libitum were used as control.
For in vivo measurements of protein synthesis, puromycin (Sigma-Aldrich, P8833) was prepared at 0.04 μmol/g body weight in a volume of 200 μL of PBS, and subsequently administered into the animals via IP injection, 30 min prior to muscle collection.
Upon collection, muscles were immediately frozen in liquid nitrogen and then stored at −80° C. […] Protein concentration in supernatants was determined using BCA Protein Assay Kit (Pierce). […]
Puromycin (12D10) (Merck Millipore) and β-actin (Sigma-Aldrich) antibodies were used as primary antibodies. […] Quantification of protein bands was done by densitometry using ImageJ software. […]

ATF4 = ATF4 expression inhibition assay (thapsigargin-stressed HEK293T cells, western blot); assay type: cell-based; settings: Homo sapiens, HEK-293T; for IC50: 3 h with 100 nM Tg, test compound 1 nM to 1 μM; for inhibition at 0.1 µM: 3 h with 100 nM thapsigargin (Tg) and 100 nM test compound; for inhibition at 0.1 µM / inhibition at 1 µM: Tg alone 0%, untreated 100%; for inhibition at 1 µM: 3 h with 100 nM thapsigargin (Tg) and 1 μM test compound
Procedure: HEK293T cells were maintained at 37° C. and 5% CO2 in Dulbecco's Modified Eagle's Media (DMEM) supplemented with 10% fetal bovine serum (FBS), 2 mM L-glutamine, 100 U/ml penicillin, and 100 μg/ml streptomycin. […] Cells without treatment or cells treated with Tg alone were used as controls.
After 3 hours of treatment with Tg and the test compound, cells were lysed with SDS-PAGE lysis buffer. Lysates were transferred to 1.5 ml tubes and sonicated for 3 min, and total protein amounts were quantified using BCA Protein Assay Kit (Pierce). Equal amount of proteins were loaded on SDS-PAGE gels. Proteins were transferred onto 0.2 μm PVDF membranes (BioRad) and probed with primary antibodies diluted in Tris-buffered saline supplemented with 0.1% Tween 20 and 3% bovine serum albumin.
(§1) ATF4 (11815) antibody was used as primary antibody (Cell Signaling Technologies). A horseradish peroxidase (HRP)-conjugated secondary antibody (Rockland) was employed to detect immune-reactive bands using enhanced chemiluminescence (ECL Western Blotting Substrate, Pierce). Quantification of protein bands was done by densitometry using ImageJ.
Percentages of ATF4 inhibition after induction with Tg in the presence of 100 nM or 1 μM of certain test compounds are shown in Table 2 and FIG. 1. Percentage of ATF4 inhibition was calculated as the percent reduction normalized to Tg treatment (0% inhibition) and untreated cells (100% inhibition). Also shown in Table 2 is the calculated IC50 for the test compounds. […] Accordingly, inhibition of ATF4 expression as a result of the test compound indicates suppression of the ISR pathway.

CHO cells = test: Protein translation assay (puromycin incorporation in CHO cells, unstressed or Tg-stressed); assay type: cell-based, Chinese hamster; settings: for activity at 0.1 µM / activity at 1 µM: Cricetulus griseus, media alone 100%; for activity at 0.1 µM: read-out: % Recovery of protein expression (100 nM test compound)
Procedure: CHO cells were maintained at 37° C. and 5% CO2 in DMEM supplemented with 10% fetal bovine serum (FBS), 2 mM L-glutamine, 100 U/ml penicillin, and 100 μg/ml streptomycin. After reaching 80% of confluence, cells were detached and seeded on 6 well plates in complete media, allowed to recover overnight and treated for 2 hours with 1 μM of the test compound (to assess protein synthesis levels in unstressed condition), or for 1 hour with 100 nM and 1 μM of the test compound and then co-treated with 300 nM Tg and 100 nM and 1 μM of the test compound (to assess the recovery of protein synthesis in a stressed condition). Cells treated with Tg alone were used as controls.
After the 2 hours treatments, media were replaced by adding 10 μg/ml puromycin (Sigma Aldrich) in complete media for 30 min. Media were removed and cells were lysed with SDS-PAGE lysis buffer. Lysates were transferred to 1.5 ml tubes and sonicated for 3 minutes and total protein amount were quantified using BCA Protein Assay Kit (Pierce). Equal amount of protein (30 μg) was loaded on SDS-PAGE gels. Proteins were transferred onto 0.2 μm PVDF membranes (BioRad) and probed with primary antibodies diluted in Tris-buffered saline supplemented with 0.1% Tween 20 and 3% bovine serum albumin.
as §1, with “Puromycin (12D10)” for “ATF4 (11815)”, “(Merck Millipore).” for “(Cell Signaling Technologies).”, “HRP-conjugated” for “horseradish peroxidase (HRP)-conjugated”
Percent increase of protein synthesis in unstressed cells (without Tg treatment) in the presence of media alone or certain test compounds is shown in Table 3 and FIG. 2. The percentage levels were normalized to the media alone condition, which correspond to 100% protein synthesis.
Percent recovery of protein synthesis in stressed cells (with Tg treatment) due to the test compounds at 100 nM or 1 μM is shown in FIGS. 3A and 3B, respectively, and in Table 3. The levels were normalized to the media alone and to Tg alone conditions, which correspond to 100% and 0% respectively.

[1] = CHO cells stressed with 300 nM Tg, Tg alone 0%
[2] = CHO cells stressed with 300 nM Tg, Tg alone 0%, read-out: % Recovery of protein expression (1 μM test compound)
[3] = unstressed CHO cells, 2 h, read-out: % Protein expression relative to untreated (1 μM test compound)

SMILES | ATF4 staining in muscle fiber CSA (fasted Balb/c mice) | IC50 (ATF4) [nM] | inhibition at 0.1 µM (ATF4) [%] | inhibition at 1 µM (ATF4) [%] | activity at 0.1 µM (CHO cells; [1]) [%] | activity at 1 µM (CHO cells; [2]) [%] | activity at 1 µM (CHO cells; [3]) [%] | protein translation (CHO cells; summary of Table 3) | protein synthesis in a cell versus ATF4 translation (CHO cells; under ISR-stressed or non-ISR stressed conditions)
O=C(NC1CCN(C[C@H](O)COc2ccc(Cl)c(F)c2)CC1)c1ccc2cc(Cl)ccc2n1 (single isomer, unassigned) [Compound 152, (+)-6-chloro-N-(1-(3-(4-chloro-3-fluorophenoxy)-2-hydroxypropyl)piperidin-4-yl)quinoline-2-carboxamide] | No staining was detected | 49 | 86 | 91 | 99.1 | 280 | 239 | – | –
O=C(COc1ccc(Cl)c(F)c1)NC1CCN(CCCOc2ccc(Cl)c(F)c2)CC1 [Compound 28, 2-(4-chloro-3-fluorophenoxy)-N-(1-(3-(4-chloro-3-fluorophenoxy)propyl)piperidin-4-yl)acetamide] | – | 25.8 | 88 | 97 | 38 | 170 | 99.3 | – | –
O=C(NC1CCN(CC(O)COc2ccc(Cl)c(F)c2)CC1)c1cc2cc(Cl)ccc2o1 (centres unmarked) [Compound 29, 5-chloro-N-(1-(3-(4-chloro-3-fluorophenoxy)-2-hydroxypropyl)piperidin-4-yl)benzofuran-2-carboxamide] | – | 51.8 | 87 | 95 | 48.4 | 267 | 186 | – | –
O=C(N[C@H]1CC[C@H](NCC(O)COc2ccc(Cl)c(F)c2)CC1)c1ccc2cc(Cl)ccc2n1 (stereo partly drawn) [Compound 30, trans-6-chloro-N-(4-((3-(4-chloro-3-fluorophenoxy)-2-hydroxypropyl)amino)cyclohexyl)quinoline-2-carboxamide] | – | > 3000 | 35 | 35 | 23.1 | 182 | 206 | increased protein translation | increase protein synthesis in a cell without full inhibition of ATF4 translation
O=C(N[C@H]1CC[C@H](NCCOc2ccc(Cl)c(F)c2)CC1)c1ccc2cc(Cl)ccc2n1 [Compound 31, trans-6-chloro-N-(4-((2-(4-chloro-3-fluorophenoxy)ethyl)amino)cyclohexyl)quinoline-2-carboxamide] | – | – | 41 | 93 | 25 | 288 | 243 | – | –
O=C(N[C@H]1CC[C@H](NCCOc2ccc(Cl)c(F)c2)CC1)c1cc2cc(Cl)ccc2o1 [Compound 32, trans-5-chloro-N-(4-((2-(4-chloro-3-fluorophenoxy)ethyl)amino)cyclohexyl)benzofuran-2-carboxamide] | – | – | 38 | 78 | 37.7 | 234 | 137 | – | –
O=C(COc1ccc(Cl)c(F)c1)N[C@H]1CC[C@H](NC(=O)c2ccc3cc(Cl)ccc3c2)CC1 [Compound 145, trans-6-chloro-N-(4-(2-(4-chloro-3-fluorophenoxy)acetamido)cyclohexyl)-2-naphthamide] | – | 17.1 | 97 | 97 | 22.6 | 40.6 | 95.4 | – | –
O=C(NC1CCN(CCCOc2ccc(Cl)c(F)c2)CC1)c1ccc2cc(Cl)ccc2n1 [Compound 146, 6-chloro-N-(1-(3-(4-chloro-3-fluorophenoxy)propyl)piperidin-4-yl)quinoline-2-carboxamide] | – | 49.9 | 88 | 100 | 43.4 | 265 | 246 | – | –
O=C(N[C@H]1CC[C@H](NCC(O)COc2ccc(Cl)c(F)c2)CC1)c1cc2cc(Cl)ccc2o1 (stereo partly drawn) [Compound 147, trans-5-chloro-N-(4-((3-(4-chloro-3-fluorophenoxy)-2-hydroxypropyl)amino)cyclohexyl)benzofuran-2-carboxamide] | – | 33.1 | 95 | 100 | 75.2 | 262 | 190 | – | –
O=C(NC1CCN(CCCOc2ccc(Cl)c(F)c2)CC1)c1cc2cc(Cl)ccc2o1 [Compound 148, 5-chloro-N-(1-(3-(4-chloro-3-fluorophenoxy)propyl)piperidin-4-yl)benzofuran-2-carboxamide] | – | – | 30 | 90 | 37.2 | 250 | 123 | – | –
O=C(COc1ccc(Cl)cc1)N[C@H]1CC[C@H](NC(=O)C2CNc3cc(Cl)ccc3O2)CC1 (stereo partly drawn) [Compound 156, trans-6-chloro-N-(4-(2-(4-chlorophenoxy)acetamido)cyclohexyl)-3,4-dihydro-2H-benzo[b][1,4]oxazine-2-carboxamide] | – | 16 | 94 | 97 | 25.1 | 200 | 197 | – | –
O=C(COc1ccc(Cl)cc1)N[C@H]1CC[C@H](N2CC(COc3ccc(Cl)cc3)OC2=O)CC1 (stereo partly drawn) [Compound 159, trans-2-(4-chlorophenoxy)-N-(4-(5-((4-chlorophenoxy)methyl)-2-oxooxazolidin-3-yl)cyclohexyl)acetamide] | – | < 100 | 52 | 84 | 23.9 | 79.4 | – | – | –
